Laboratory results reported in ChEMBL document CHEMBL4507269, “Data for DCP probe BAY-386” (2021).

Experiments:
[1] = target: Serine/threonine-protein kinase 32A (Homo sapiens) (UniProt Q8WU08); conditions: Compound concentration 1000.0 nM
[2] = test system: Receptor-type tyrosine-protein kinase FLT3 (Homo sapiens), P36888 [UNDEFINED MUTATION]; conditions: Compound concentration 1000.0 nM
[3] = target: Dual specificity mitogen-activated protein kinase kinase 2 (Homo sapiens) (UniProt P36507); conditions: Compound concentration 1000.0 nM
[4] = target: Serine/threonine-protein kinase PLK3 (Homo sapiens) (UniProt Q9H4B4); conditions: Compound concentration 1000.0 nM
[5] = test system: Hepatocyte growth factor receptor (Homo sapiens), P08581 [M1250T]; conditions: Compound concentration 1000.0 nM
[6] = target: Phosphatidylinositol 5-phosphate 4-kinase type-2 gamma (Homo sapiens) (UniProt Q8TBX8); conditions: Compound concentration 1000.0 nM
[7] = target: Serine/threonine-protein kinase LATS2 (Homo sapiens) (UniProt Q9NRM7); conditions: Compound concentration 1000.0 nM
[8] = target: Ribosomal protein S6 kinase alpha-2 (Homo sapiens) (UniProt Q15349); conditions: Compound concentration 1000.0 nM
[9] = target: Protein kinase C delta type (Homo sapiens) (UniProt Q05655); conditions: Compound concentration 1000.0 nM
[10] = target: Transient receptor potential cation channel subfamily M member 6 (Homo sapiens) (UniProt Q9BX84); conditions: Compound concentration 1000.0 nM
[11] = target: Mitogen-activated protein kinase kinase kinase 19 (Homo sapiens) (UniProt Q56UN5); conditions: Compound concentration 1000.0 nM
[12] = target: Histamine H3 receptor (Homo sapiens) (UniProt Q9Y5N1); assay: H3 (h) Eurofins-Cerep Cellular and Nuclear Receptor Functional Assays; conditions: Compound concentration 10.0 uM
[13] = target: Serine/threonine-protein kinase 35 (Homo sapiens) (UniProt Q8TDR2); conditions: Compound concentration 1000.0 nM
[14] = target: Casein kinase I isoform alpha-like (Homo sapiens) (UniProt Q8N752); conditions: Compound concentration 1000.0 nM
[15] = target: Serine/threonine-protein kinase PAK 2 (Homo sapiens) (UniProt Q13177); conditions: Compound concentration 1000.0 nM
[16] = target: Ephrin type-A receptor 5 (Homo sapiens) (UniProt P54756); conditions: Compound concentration 1000.0 nM
[17] = target: Histamine H4 receptor (Homo sapiens) (UniProt Q9H3N8); conditions: Compound concentration 10.0 uM
[18] = target: Serine/threonine-protein kinase ULK2 (Homo sapiens) (UniProt Q8IYT8); conditions: Compound concentration 1000.0 nM
[19] = target: Serine/threonine-protein kinase Nek7 (Homo sapiens) (UniProt Q8TDX7); conditions: Compound concentration 1000.0 nM
[20] = target: Uncharacterized serine/threonine-protein kinase SBK3 (Homo sapiens) (UniProt P0C264); conditions: Compound concentration 1000.0 nM
[21] = target: Tyrosine-protein kinase Lyn (Homo sapiens) (UniProt P07948); conditions: Compound concentration 1000.0 nM
[22] = target: Activated CDC42 kinase 1 (Homo sapiens) (UniProt Q07912); conditions: Compound concentration 1000.0 nM
[23] = test system: Phosphatidylinositol 4,5-bisphosphate 3-kinase catalytic subunit alpha isoform (Homo sapiens), P42336 [H1047L]; conditions: Compound concentration 1000.0 nM
[24] = target: Insulin receptor-related protein (Homo sapiens) (UniProt P14616); conditions: Compound concentration 1000.0 nM
[25] = target: Casein kinase I isoform epsilon (Homo sapiens) (UniProt P49674); conditions: Compound concentration 1000.0 nM
[26] = target: D(1B) dopamine receptor (Homo sapiens) (UniProt P21918); conditions: Compound concentration 10.0 uM
[27] = test system: Receptor-type tyrosine-protein kinase FLT3 (Homo sapiens), P36888 [D835Y]; conditions: Compound concentration 1000.0 nM
[28] = target: Serine/threonine-protein kinase Nek9 (Homo sapiens) (UniProt Q8TD19); conditions: Compound concentration 1000.0 nM
[29] = target: Serine/threonine-protein kinase SIK1 (Homo sapiens) (UniProt P57059); conditions: Compound concentration 1000.0 nM
[30] = target: Cytoplasmic tyrosine-protein kinase BMX (Homo sapiens) (UniProt P51813); conditions: Compound concentration 1000.0 nM
[31] = target: Beta-2 adrenergic receptor (Homo sapiens) (UniProt P07550); conditions: Compound concentration 10.0 uM
[32] = target: ALK tyrosine kinase receptor (Homo sapiens) (UniProt Q9UM73); conditions: Compound concentration 1000.0 nM
[33] = test system: Tyrosine-protein kinase ABL1 (Homo sapiens), P00519 [M351T]; conditions: Compound concentration 1000.0 nM
[34] = target: Serine/threonine-protein kinase VRK2 (Homo sapiens) (UniProt Q86Y07); conditions: Compound concentration 1000.0 nM
[35] = target: Serine/threonine-protein kinase Sgk3 (Homo sapiens) (UniProt Q96BR1); conditions: Compound concentration 1000.0 nM
[36] = target: Serine/threonine-protein kinase Chk2 (Homo sapiens) (UniProt O96017); conditions: Compound concentration 1000.0 nM
[37] = target: Cyclin-dependent kinase 8 (Homo sapiens) (UniProt P49336); conditions: Compound concentration 1000.0 nM
[38] = target: Interferon-induced, double-stranded RNA-activated protein kinase (Homo sapiens) (UniProt P19525); conditions: Compound concentration 1000.0 nM
[39] = target: Alpha-2B adrenergic receptor (Homo sapiens) (UniProt P18089); conditions: Compound concentration 10.0 uM
[40] = target: Homeodomain-interacting protein kinase 1 (Homo sapiens) (UniProt Q86Z02); conditions: Compound concentration 1000.0 nM
[41] = target: Ribosomal protein S6 kinase alpha-2 (Homo sapiens) (UniProt Q15349); conditions: Compound concentration 1000.0 nM; remark: listed apart in the source
[42] = target: Serine/threonine-protein kinase Nek2 (Homo sapiens) (UniProt P51955); conditions: Compound concentration 1000.0 nM
[43] = test system: Epidermal growth factor receptor (Homo sapiens), P00533 [T790M]; conditions: Compound concentration 1000.0 nM
[44] = test system: Epidermal growth factor receptor (Homo sapiens), P00533 [UNDEFINED MUTATION]; conditions: Compound concentration 1000.0 nM
[45] = target: Ephrin type-A receptor 3 (Homo sapiens) (UniProt P29320); conditions: Compound concentration 1000.0 nM

Sequence of Ribosomal protein S6 kinase alpha-2 (Homo sapiens) (Q15349 whole entry): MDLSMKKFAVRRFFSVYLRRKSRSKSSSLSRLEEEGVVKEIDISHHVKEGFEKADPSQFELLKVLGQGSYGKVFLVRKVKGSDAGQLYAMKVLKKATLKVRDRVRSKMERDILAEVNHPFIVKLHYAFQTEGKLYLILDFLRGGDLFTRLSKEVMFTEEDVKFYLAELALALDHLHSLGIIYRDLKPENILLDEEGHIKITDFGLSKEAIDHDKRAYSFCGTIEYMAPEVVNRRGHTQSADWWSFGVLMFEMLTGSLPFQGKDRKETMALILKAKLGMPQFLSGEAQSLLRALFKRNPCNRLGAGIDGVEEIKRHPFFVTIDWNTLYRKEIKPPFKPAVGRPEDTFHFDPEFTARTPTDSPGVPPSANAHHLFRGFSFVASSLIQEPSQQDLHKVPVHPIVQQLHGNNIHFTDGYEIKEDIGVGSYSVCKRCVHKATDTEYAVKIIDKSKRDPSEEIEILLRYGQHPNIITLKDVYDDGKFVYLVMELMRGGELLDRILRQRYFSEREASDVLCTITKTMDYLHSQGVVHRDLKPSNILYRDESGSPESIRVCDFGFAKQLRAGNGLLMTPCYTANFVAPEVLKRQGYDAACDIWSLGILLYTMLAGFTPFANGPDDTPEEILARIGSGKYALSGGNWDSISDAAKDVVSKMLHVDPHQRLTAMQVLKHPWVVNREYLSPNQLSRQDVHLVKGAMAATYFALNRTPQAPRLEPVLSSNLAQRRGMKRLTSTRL
Sequence of Histamine H3 receptor (Homo sapiens) (Q9Y5N1 whole entry): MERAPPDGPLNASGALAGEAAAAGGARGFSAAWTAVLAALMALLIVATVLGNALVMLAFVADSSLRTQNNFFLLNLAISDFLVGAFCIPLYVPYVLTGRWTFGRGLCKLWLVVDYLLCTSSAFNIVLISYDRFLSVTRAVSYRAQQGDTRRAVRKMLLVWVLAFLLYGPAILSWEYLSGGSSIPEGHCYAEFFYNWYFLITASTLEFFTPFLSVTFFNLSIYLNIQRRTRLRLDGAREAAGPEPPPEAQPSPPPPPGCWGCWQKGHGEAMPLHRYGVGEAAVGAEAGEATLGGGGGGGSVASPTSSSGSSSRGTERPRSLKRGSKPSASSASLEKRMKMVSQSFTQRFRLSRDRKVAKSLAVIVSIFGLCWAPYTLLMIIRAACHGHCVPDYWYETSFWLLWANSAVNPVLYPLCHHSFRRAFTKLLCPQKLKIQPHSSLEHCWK
Sequence of Protein kinase C delta type (Homo sapiens) (Q05655 whole entry, looked up): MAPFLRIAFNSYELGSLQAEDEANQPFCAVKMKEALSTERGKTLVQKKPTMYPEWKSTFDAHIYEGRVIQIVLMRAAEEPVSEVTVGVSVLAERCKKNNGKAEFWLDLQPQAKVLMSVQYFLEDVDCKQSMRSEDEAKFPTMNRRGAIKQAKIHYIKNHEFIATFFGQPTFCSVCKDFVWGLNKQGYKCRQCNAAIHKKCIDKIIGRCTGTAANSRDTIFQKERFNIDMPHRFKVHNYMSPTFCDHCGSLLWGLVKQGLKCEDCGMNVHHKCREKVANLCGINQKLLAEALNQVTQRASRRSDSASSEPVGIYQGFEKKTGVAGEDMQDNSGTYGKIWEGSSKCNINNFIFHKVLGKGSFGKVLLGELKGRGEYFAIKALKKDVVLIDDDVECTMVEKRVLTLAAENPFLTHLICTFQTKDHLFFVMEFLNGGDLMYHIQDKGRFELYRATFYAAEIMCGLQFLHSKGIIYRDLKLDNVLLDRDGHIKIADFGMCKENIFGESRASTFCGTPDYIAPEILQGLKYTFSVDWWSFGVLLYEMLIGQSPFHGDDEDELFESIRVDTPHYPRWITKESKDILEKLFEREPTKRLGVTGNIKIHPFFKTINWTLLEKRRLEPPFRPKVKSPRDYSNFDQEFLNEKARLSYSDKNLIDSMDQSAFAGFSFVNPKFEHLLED
Sequence of Dual specificity mitogen-activated protein kinase kinase 2 (Homo sapiens) (P36507 whole entry): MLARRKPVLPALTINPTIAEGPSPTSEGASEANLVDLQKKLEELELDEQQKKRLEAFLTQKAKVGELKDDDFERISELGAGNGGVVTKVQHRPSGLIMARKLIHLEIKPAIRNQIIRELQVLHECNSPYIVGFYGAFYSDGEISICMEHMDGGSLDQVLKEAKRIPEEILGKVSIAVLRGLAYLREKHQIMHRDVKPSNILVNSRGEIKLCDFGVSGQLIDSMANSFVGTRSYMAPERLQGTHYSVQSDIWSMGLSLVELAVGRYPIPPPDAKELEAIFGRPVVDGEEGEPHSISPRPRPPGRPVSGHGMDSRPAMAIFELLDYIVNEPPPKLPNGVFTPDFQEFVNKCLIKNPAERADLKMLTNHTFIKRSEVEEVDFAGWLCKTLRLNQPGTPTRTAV
Sequence of Serine/threonine-protein kinase 32A (Homo sapiens) (Q8WU08 whole entry): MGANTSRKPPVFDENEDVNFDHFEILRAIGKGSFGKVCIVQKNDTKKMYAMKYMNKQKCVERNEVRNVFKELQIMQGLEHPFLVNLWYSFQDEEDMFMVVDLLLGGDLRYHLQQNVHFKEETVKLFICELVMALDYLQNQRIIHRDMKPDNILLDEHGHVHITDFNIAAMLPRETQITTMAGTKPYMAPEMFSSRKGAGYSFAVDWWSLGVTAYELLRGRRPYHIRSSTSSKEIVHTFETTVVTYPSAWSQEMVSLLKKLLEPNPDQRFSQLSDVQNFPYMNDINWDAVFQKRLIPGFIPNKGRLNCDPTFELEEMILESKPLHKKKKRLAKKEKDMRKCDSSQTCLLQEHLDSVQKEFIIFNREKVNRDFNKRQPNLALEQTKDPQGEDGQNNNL
Sequence of Transient receptor potential cation channel subfamily M member 6 (Homo sapiens) (Q9BX84 whole entry): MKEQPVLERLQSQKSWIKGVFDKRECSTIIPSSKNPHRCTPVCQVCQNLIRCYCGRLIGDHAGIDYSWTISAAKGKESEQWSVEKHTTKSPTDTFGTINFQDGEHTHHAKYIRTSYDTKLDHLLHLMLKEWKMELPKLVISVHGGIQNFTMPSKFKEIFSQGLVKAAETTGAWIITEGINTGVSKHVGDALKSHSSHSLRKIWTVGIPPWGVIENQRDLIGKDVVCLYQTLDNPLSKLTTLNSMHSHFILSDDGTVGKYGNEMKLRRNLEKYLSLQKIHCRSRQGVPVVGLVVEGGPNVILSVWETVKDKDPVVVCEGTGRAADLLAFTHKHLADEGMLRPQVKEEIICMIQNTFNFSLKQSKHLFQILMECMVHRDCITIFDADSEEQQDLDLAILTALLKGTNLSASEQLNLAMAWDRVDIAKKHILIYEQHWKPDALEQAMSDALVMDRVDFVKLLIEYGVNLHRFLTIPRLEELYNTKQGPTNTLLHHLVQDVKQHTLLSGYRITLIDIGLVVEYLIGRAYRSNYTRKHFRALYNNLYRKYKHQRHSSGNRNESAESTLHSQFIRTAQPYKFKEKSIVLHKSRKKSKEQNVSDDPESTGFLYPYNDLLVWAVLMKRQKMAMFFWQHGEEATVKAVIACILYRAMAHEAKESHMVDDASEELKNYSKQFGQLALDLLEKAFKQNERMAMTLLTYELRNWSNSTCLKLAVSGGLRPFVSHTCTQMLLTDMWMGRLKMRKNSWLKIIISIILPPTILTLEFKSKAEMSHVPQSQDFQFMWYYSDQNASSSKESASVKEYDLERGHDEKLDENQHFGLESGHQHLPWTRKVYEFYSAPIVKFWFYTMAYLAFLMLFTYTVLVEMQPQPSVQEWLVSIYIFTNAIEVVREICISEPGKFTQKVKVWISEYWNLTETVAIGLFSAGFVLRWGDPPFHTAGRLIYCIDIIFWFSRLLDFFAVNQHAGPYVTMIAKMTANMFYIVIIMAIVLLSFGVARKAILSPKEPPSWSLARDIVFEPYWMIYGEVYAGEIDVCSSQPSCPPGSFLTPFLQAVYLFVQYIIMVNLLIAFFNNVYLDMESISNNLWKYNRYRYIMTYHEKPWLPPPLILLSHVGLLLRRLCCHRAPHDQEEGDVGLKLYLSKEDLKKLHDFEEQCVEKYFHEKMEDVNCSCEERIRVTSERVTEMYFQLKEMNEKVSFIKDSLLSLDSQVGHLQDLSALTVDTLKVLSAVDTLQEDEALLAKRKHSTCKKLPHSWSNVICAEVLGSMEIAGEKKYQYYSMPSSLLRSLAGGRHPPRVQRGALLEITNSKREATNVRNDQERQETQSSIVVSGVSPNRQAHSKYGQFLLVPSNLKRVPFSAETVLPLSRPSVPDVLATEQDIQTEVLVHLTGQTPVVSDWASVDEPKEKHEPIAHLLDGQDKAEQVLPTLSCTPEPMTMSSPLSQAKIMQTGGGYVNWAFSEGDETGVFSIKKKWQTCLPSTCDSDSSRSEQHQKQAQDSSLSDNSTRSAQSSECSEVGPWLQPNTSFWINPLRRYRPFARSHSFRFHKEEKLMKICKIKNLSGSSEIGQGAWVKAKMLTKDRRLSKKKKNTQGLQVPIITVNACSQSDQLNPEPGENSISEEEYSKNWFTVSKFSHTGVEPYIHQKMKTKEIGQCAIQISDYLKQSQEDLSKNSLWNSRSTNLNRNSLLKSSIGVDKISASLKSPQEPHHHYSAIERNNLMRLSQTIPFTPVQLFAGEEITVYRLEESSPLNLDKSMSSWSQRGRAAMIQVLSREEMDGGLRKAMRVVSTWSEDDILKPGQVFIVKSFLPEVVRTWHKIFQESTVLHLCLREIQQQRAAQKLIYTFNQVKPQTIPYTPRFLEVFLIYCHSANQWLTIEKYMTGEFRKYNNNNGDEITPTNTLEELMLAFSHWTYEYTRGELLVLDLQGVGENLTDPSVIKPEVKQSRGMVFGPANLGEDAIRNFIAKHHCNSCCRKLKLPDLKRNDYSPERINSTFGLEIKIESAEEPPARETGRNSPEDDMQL
Sequence of Histamine H4 receptor (Homo sapiens) (Q9H3N8 whole entry): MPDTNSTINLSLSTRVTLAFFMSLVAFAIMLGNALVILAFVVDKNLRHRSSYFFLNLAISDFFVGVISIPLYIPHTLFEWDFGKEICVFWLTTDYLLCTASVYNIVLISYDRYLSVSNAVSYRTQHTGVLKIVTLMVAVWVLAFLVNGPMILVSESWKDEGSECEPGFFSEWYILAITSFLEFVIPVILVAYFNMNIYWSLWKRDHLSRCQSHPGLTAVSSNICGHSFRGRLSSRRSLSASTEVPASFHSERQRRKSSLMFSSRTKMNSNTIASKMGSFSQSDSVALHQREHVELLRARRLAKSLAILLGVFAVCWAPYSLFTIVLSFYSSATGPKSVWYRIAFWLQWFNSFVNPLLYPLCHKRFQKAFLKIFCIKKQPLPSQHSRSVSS

Q: Which results are given for `O=C(N1CCS(=O)(=O)CC1)N1C[C@H](c2ccc(OC(F)(F)F)cc2)C[C@H](c2nc(C3CC3)no2)C1` [BAY-386]?
A: residual activity [1]: 89%; residual activity [2]: 93%; residual activity [3]: 100%; residual activity [4]: 98%; residual activity [5]: 100%; residual activity [6]: 96%; residual activity [7]: 100%; residual activity [8]: 100%; residual activity [9]: 100%; residual activity [10]: 100%; residual activity [11]: 58%; % Inhibition of Control Agonist Response (Mean n=2) [12]: -3.7%; % of Control Agonist Response (Mean n=2) [12]: 6.2%; residual activity [13]: 100%; residual activity [14]: 100%; residual activity [15]: 90%; residual activity [16]: 96%; inhibition [17]: -4.72%; residual activity [18]: 75%; residual activity [19]: 100%; residual activity [20]: 98%; residual activity [21]: 85%; residual activity [22]: 97%; residual activity [23]: 100%; residual activity [24]: 97%; residual activity [25]: 100%; inhibition [26]: 9.95%; residual activity [27]: 100%; residual activity [28]: 100%; residual activity [29]: 99%; residual activity [30]: 100%; inhibition [31]: 11.8%; residual activity [32]: 100%; residual activity [33]: 100%; residual activity [34]: 90%; residual activity [35]: 100%; residual activity [36]: 100%; residual activity [37]: 100%; residual activity [38]: 100%; inhibition [39]: 2.41%; residual activity [40]: 100%; residual activity [41]: 100%; residual activity [42]: 100%; residual activity [43]: 100%; residual activity [44]: 55%; residual activity [45]: 100%

Q: Which results are given for `Cc1noc([C@H]2C[C@@H](c3ccc(C(F)(F)F)cc3)CN(C(=O)N3CCS(=O)(=O)C3)C2)n1` [BAY-448]?
A: residual activity [1]: 100%; residual activity [2]: 100%; residual activity [3]: 90%; residual activity [4]: 88%; residual activity [5]: 100%; residual activity [6]: 89%; residual activity [7]: 100%; residual activity [8]: 92%; residual activity [9]: 100%; residual activity [10]: 100%; residual activity [11]: 77%; % Inhibition of Control Agonist Response (Mean n=2) [12]: -4.2%; % of Control Agonist Response (Mean n=2) [12]: 13.9%; residual activity [13]: 99%; residual activity [14]: 100%; residual activity [15]: 87%; residual activity [16]: 100%; inhibition [17]: -2.74%; residual activity [18]: 100%; residual activity [19]: 100%; residual activity [20]: 84%; residual activity [21]: 100%; residual activity [22]: 100%; residual activity [23]: 100%; residual activity [24]: 100%; residual activity [25]: 100%; inhibition [26]: 22.6%; residual activity [27]: 100%; residual activity [28]: 100%; residual activity [29]: 100%; residual activity [30]: 100%; inhibition [31]: 24%; residual activity [32]: 100%; residual activity [33]: 84%; residual activity [34]: 91%; residual activity [35]: 100%; residual activity [36]: 100%; residual activity [37]: 100%; residual activity [38]: 100%; inhibition [39]: -2.77%; residual activity [40]: 82%; residual activity [41]: 100%; residual activity [42]: 100%; residual activity [43]: 77%; residual activity [44]: 84%; residual activity [45]: 100%
